Experimental data taken from patent US20260364184A1, “COMPOUND BASED ON OXOISOINDOLINYL-SUBSTITUTED TETRAHYDROPYRIMIDINE-DIONE AND USE THEREOF” (GLUETACS THERAPEUTICS (SHANGHAI) CO., LTD., priority 2023, published 2026).

Molecular target: T1, Tau (Homo sapiens, UniProt P10636)
T1 construct: endogenous in cells
Test: Western blot degradation of Tau
Type: cell-based
Conditions: H4 Cell; 24 hours
Procedure: (§1) Conventional Western blot assay was performed to evaluate the effects of the compounds of the present disclosure on the expression of target proteins in cells.
(§2) (1) Cell Seeding and Protein Harvesting: The selected cells were processed according to the cell seeding procedure and protein harvesting procedure in Table II-2.
(§3) (2) To the collected supernatant, 5×SDS sample loading buffer was added, followed by denaturation at 95 °C for 5 minutes. The denatured samples were then separated by SDS-PAGE electrophoresis on a polyacrylamide gel. Proteins were transferred to a nitrocellulose membrane (0.45 μm NC membrane), blocked with blocking buffer at room temperature for 1 hour, and subjected to antibody incubation and development procedures according to the antibody manufacturer's instructions (Cell Signaling Technology).
(§4) Half-Maximal Degradation Concentration value (the drug concentration required for degrading proteins by 50%, abbreviated as DC50) reads method: comparing the grayscale values of Western blot bands from drug-treated samples with those from blank DMSO-treated controls, and identifying the drug concentration range at which the grayscale value is half that of the DMSO-treated control bands.
(§5) DC50 values can be calculated using ImageJ software to measure grayscale values of Western blot bands from drug-treated samples. The concentration-response curve is fitted to estimate the drug concentration corresponding to half the grayscale value.
(§6) Target protein remaining (%) refers to the percentage of target protein remaining in cells after treatment with protein degrader compounds.
(§7) Calculation method for target protein remaining (%): Use ImageJ software to measure grayscale values of Western blot bands from drug (protein degrader)-treated samples. The grayscale value of drug-treated bands is divided by that of internal control protein bands, and the resulting quotient is normalized to obtain the relative percentage of remaining target protein after protein degrader treatment.
(§8) Target protein degradation rate (%)=1−target protein remaining (%).

T1 sequence (P10636 whole entry): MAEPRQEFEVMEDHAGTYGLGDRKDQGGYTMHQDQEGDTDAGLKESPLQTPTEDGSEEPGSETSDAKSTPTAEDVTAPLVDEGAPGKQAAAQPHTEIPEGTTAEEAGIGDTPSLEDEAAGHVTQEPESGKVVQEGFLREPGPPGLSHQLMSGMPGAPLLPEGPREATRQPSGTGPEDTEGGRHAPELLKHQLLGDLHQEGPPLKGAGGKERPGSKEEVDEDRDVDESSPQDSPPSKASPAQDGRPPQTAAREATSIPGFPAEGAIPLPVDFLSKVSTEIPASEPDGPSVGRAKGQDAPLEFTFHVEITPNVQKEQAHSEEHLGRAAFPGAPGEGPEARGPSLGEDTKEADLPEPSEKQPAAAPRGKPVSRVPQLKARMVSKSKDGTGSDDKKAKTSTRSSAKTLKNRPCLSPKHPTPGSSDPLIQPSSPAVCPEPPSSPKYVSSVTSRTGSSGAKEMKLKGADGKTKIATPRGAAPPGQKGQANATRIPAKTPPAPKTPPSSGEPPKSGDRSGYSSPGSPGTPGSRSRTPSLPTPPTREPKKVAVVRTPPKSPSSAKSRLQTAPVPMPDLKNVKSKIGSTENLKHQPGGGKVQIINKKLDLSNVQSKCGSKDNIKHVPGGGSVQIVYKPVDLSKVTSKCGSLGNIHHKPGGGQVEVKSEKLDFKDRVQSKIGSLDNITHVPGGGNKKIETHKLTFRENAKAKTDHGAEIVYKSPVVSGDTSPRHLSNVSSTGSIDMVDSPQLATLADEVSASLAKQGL

Compound	Degradation of substrate protein Tau (substrate protein remaining %)
Cn1ncc(Cl)c1-c1cc(C(=O)N[C@H](CNCC2CCN(c3cccc4c3C(=O)N(N3CCC(=O)NC3=O)C4=O)CC2)Cc2ccc(F)c(F)c2)oc1Cl [GT-08589, (S)-5-chloro-4-(4-chloro-1-methyl-1H-pyrazol-5-yl)-N-(1-(3,4-difluorophenyl)-3-(((1-(2-(2,4-dioxotetrahydropyrimidin-1(2H)-yl)-1,3-dioxoisoindolin-4-yl)piperidin-4-yl)methyl)amino)propan-2-yl) furan-2-carboxamide]	A (0%≤substrate protein remaining %≤80%)
O=C1CCN(N2C(=O)c3ccc(CN4CCN(C5CCN(c6ccn7c(n6)nc6ccccc67)CC5)CC4)cc3C2=O)C(=O)N1 [GT-08568, 5-((4-(1-(benzo[4,5]imidazo[1,2-a]pyrimidin-2-yl)piperidin-4-yl)piperazin-1-yl)methyl)-2-(2,4-dioxotetrahydropyrimidin-1(2H)-yl)isoindoline-1,3-dione]	A (0%≤substrate protein remaining %≤80%)

Further lines, results first:

Degradation of substrate protein Tau (substrate protein remaining %)	Compound
A (0%≤substrate protein remaining %≤80%)	O=C1CCN(N2C(=O)c3ccc(N4CCN(CC5CCN(c6ccn7c(n6)nc6ccccc67)CC5)CC4)c(F)c3C2=O)C(=O)N1 [GT-08824, 5-(4-((1-(benzo[4,5]imidazo[1,2-a]pyrimidin-2-yl)piperidin-4-yl)methyl)piperazin-1-yl)-2-(2,4-dioxotetrahydropyrimidin-1(2H)-yl)-4-fluoroisoindoline-1,3-dione]
A (0%≤substrate protein remaining %≤80%)	Cn1ncc(Cl)c1-c1cc(C(=O)N[C@@H](Cc2cccc(F)c2)CN2CCN(CC3CCN(c4cccc5c4C(=O)N(N4CCC(=O)NC4=O)C5=O)CC3)CC2)sc1Cl [GT-08591, (S)-5-chloro-4-(4-chloro-1-methyl-1H-pyrazol-5-yl)-N-(1-(4-((1-(2-(2,4-dioxotetrahydropyrimidin-1(2H)-yl)-1,3-dioxoisoindolin-4-yl)piperidin-4-yl)methyl)piperazin-1-yl)-3-(3-fluorophenyl)propan-2-yl)thiophene-2-carboxamide]
A (0%≤substrate protein remaining %≤80%)	Cn1ncc(Cl)c1-c1cc(C(=O)N[C@@H](Cc2ccc(F)c(F)c2)CN2CCN(CC3CCN(c4cccc5c4C(=O)N(N4CCC(=O)NC4=O)C5=O)CC3)CC2)oc1Cl [GT-08590, (S)-5-chloro-4-(4-chloro-1-methyl-1H-pyrazol-5-yl)-N-(1-(3,4-difluorophenyl)-3-(4-((1-(2-(2,4-dioxotetrahydropyrimidin-1(2H)-yl)-1,3-dioxoisoindolin-4-yl)piperidin-4-yl)methyl)piperazin-1-yl)propan-2-yl) furan-2-carboxamide]

Molecular target: T2, BTK (Homo sapiens, UniProt Q06187)
T2 construct: expression of target proteins in cells; endogenous in cells
T2 sequence (Q06187 whole entry): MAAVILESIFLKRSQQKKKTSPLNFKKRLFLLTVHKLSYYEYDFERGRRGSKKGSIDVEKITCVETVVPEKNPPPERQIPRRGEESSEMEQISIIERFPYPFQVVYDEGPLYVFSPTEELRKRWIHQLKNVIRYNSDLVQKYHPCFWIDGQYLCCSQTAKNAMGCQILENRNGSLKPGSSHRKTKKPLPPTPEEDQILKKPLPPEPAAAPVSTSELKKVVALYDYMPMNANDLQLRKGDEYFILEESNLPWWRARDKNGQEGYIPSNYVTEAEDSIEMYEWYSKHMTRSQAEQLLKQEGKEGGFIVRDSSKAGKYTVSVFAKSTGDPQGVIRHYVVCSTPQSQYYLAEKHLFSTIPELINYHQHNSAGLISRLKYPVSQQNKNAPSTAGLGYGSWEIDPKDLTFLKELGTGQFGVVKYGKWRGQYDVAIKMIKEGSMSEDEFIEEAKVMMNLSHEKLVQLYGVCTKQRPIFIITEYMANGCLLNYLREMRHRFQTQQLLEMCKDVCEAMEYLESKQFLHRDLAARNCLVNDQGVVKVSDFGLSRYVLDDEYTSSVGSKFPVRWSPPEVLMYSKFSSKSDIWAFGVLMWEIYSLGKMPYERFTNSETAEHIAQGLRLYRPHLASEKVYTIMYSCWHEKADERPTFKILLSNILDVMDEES
Test: Western blot degradation of BTK
Type: cell-based
Conditions: Table IIA4, BTK inhibitor-based
Procedure: as §1, §2, §3, §4, §5, §6, §7, §8

Compound	Degradation of substrate protein BTK (substrate protein remaining %)
Nc1ncnc2c1c(-c1ccc(Oc3ccccc3)cc1)nn2C1CCN(CC2CCN(c3cccc4c3C(=O)N(N3CCC(=O)NC3=O)C4=O)CC2)CC1 [GT-05077, 4-(4-((4-(4-amino-3-(4-phenoxyphenyl)-1H-pyrazolo[3,4-d]pyrimidin-1-yl)piperidin-1-yl)methyl)piperidin-1-yl)-2-(2,4-dioxotetrahydropyrimidin-1(2H)-yl)isoindoline-1,3-dione]	A (0%≤substrate protein remaining %≤80%)
